System: Metabolism protein genes
Experiment: DNA chip mRNA expression in yeast, metabolism protein genes (Table 7)
Assay type: cell-based, Saccharomyces cerevisiae S288C
Protocol: Yeast (Saccharomyces cerevisiae S288C (α SUC2mal mel gap2 CUP1)) were incubated at 25° C. on YPD medium (yeast extract 1%, polypepton 2%, glucose 2%). One of toxic chemical substances was added to the cells at logarithmic growth phase, and the cells were further incubated for two hours. Cells were cultured without any chemical substance in the same condition, and were used as control. Concentrations of the chemical substances were defined to inhibit the growth of the yeast but not lead to death.
After completion of the incubation, the culture was centrifuged to collect the cells. To the cells, sodium acetate buffer (50 mM sodium acetate, 10 mM EDTA, 1% SDS) was added, and the mixture was shaken at 65° C. for five minutes, followed by returning to room temperature, and obtaining the supernatant, of which the procedures were repeated two times. To the supernatant, ½ amount of a solution of phenol/chloroform was added, and the mixture was centrifuged to give a supernatant, which was added with an equal amount of chloroform, and the mixture was centrifuged to give a supernatant. To the supernatant, an equal amount of isopropanol containing 0.3 M sodium acetate was added, and the mixture was allowed to stand at room temperature for 30 minutes, after which the mixture was centrifuged to give a sediment of the whole RNAs. Seventy % ethanol was added to the sediment, and the mixture was again centrifuged to give a sediment, which was then dried and dissolved in water. mRNA was isolated from the whole RNAs as followings. In view of the fact that a poly A chain is attached to the 3′ terminus of mRNA, a polynucleotide having a poly T structure which was immobilized on the surface of latex beads was used to trap the mRNA, and then the mRNA was washed and eluted with spine column (Oligotex-dT30<Super>mRNA Purification Kit, Takara). Reverse transcription of the mRNA was conducted with a reverse transcriptase (Super Script II Reverse Transcriptase; catalogue No. 18064-014, GibcoBRL) using fluorescence-labeled nucleotides to give cDNAs that were introduced with Cy3-dUTP or Cy5-dUTP during the reverse transcription.
The labeled cDNAs were dissolved in TE buffer (10mM Tris-HCl/1 mM EDTA, pH8.0), and the solution was dropped on the DNA chip containing the whole genes of yeast (DNA Chip Research Inc. Japan) so that the cDNAs were hybridized on the DNA chip at 65° C. for over 12 hours. The fluoresces intensity of the DNA chip was read with a scanner, and the ratio relative to the fluorescence intensity resulting from the absence of chemical substance was estimated as the following, which is shown in Tables 1 to 9: […]

Na2As [(1)]
The level of expressed mRNA in the presence of chemical substance/The level of expressed mRNA in the absence of chemical substance (yeast gene YJR155W): 10.6 | The level of expressed mRNA in the presence of chemical substance/The level of expressed mRNA in the absence of chemical substance (yeast gene YKL035W): 1.0 | level of expressed mRNA in the presence/in the absence of chemical substance (yeast gene YKL060C): 1.6 | The level of expressed mRNA in the presence of chemical substance/The level of expressed mRNA in the absence of chemical substance (yeast gene YKL091C): 1.2 | The level of expressed mRNA in the presence of chemical substance/The level of expressed mRNA in the absence of chemical substance (yeast gene YKL104C): 1.0 | level of expressed mRNA in the presence/in the absence of chemical substance (yeast gene YKL148C): 0.9 | The level of expressed mRNA in the presence of chemical substance/The level of expressed mRNA in the absence of chemical substance (yeast gene YKL152C): 1.3 | level of expressed mRNA in the presence/in the absence of chemical substance (yeast gene YKL157W): 0.7 | The level of expressed mRNA in the presence of chemical substance/The level of expressed mRNA in the absence of chemical substance (yeast gene YKL213C): 0.9 | The level of expressed mRNA in the presence of chemical substance/The level of expressed mRNA in the absence of chemical substance (yeast gene YKL215C): 0.6 | level of expressed mRNA in the presence/in the absence of chemical substance (yeast gene YKR034W): 0.9 | The level of expressed mRNA in the presence of chemical substance/The level of expressed mRNA in the absence of chemical substance (yeast gene YLL058W): 1.0 | level of expressed mRNA in the presence/in the absence of chemical substance (yeast gene YLR006C): 0.7 | level of expressed mRNA in the presence/in the absence of chemical substance (yeast gene YLR044C): 0.8 | level of expressed mRNA in the presence/in the absence of chemical substance (yeast gene YLR056W): 1.0 | level of expressed mRNA in the presence/in the absence of chemical substance (yeast gene YLR058C): 0.9 | level of expressed mRNA in the presence/in the absence of chemical substance (yeast gene YLR081W): 1.3 | level of expressed mRNA in the presence/in the absence of chemical substance (yeast gene YLR089C): 0.9 | The level of expressed mRNA in the presence of chemical substance/The level of expressed mRNA in the absence of chemical substance (yeast gene YLR180W): 1.3 | The level of expressed mRNA in the presence of chemical substance/The level of expressed mRNA in the absence of chemical substance (yeast gene YLR273C): 1.4 | level of expressed mRNA in the presence/in the absence of chemical substance (yeast gene YLR284C): 0.9 | The level of expressed mRNA in the presence of chemical substance/The level of expressed mRNA in the absence of chemical substance (yeast gene YLR299W): 1.2 | The level of expressed mRNA in the presence of chemical substance/The level of expressed mRNA in the absence of chemical substance (yeast gene YLR300W): 0.9 | level of expressed mRNA in the presence/in the absence of chemical substance (yeast gene YLR304C): 0.7 | The level of expressed mRNA in the presence of chemical substance/The level of expressed mRNA in the absence of chemical substance (yeast gene YLR307W): 0.9 | The level of expressed mRNA in the presence of chemical substance/The level of expressed mRNA in the absence of chemical substance (yeast gene YLR348C): 1.1 | level of expressed mRNA in the presence/in the absence of chemical substance (yeast gene YLR354C): 1.1 | level of expressed mRNA in the presence/in the absence of chemical substance (yeast gene YLR372W): 0.7 | level of expressed mRNA in the presence/in the absence of chemical substance (yeast gene YML022W): 0.9 | The level of expressed mRNA in the presence of chemical substance/The level of expressed mRNA in the absence of chemical substance (yeast gene YML054C): 1.5 | The level of expressed mRNA in the presence of chemical substance/The level of expressed mRNA in the absence of chemical substance (yeast gene YML070W): 0.9 | The level of expressed mRNA in the presence of chemical substance/The level of expressed mRNA in the absence of chemical substance (yeast gene YML100W): 0.8 | The level of expressed mRNA in the presence of chemical substance/The level of expressed mRNA in the absence of chemical substance (yeast gene YMR008C): 0.7 | level of expressed mRNA in the presence/in the absence of chemical substance (yeast gene YMR011W): 1.3 | level of expressed mRNA in the presence/in the absence of chemical substance (yeast gene YMR015C): 0.7 | The level of expressed mRNA in the presence of chemical substance/The level of expressed mRNA in the absence of chemical substance (yeast gene YMR020W): 1.3 | level of expressed mRNA in the presence/in the absence of chemical substance (yeast gene YMR083W): 1.4 | The level of expressed mRNA in the presence of chemical substance/The level of expressed mRNA in the absence of chemical substance (yeast gene YMR105C): 1.9 | The level of expressed mRNA in the presence of chemical substance/The level of expressed mRNA in the absence of chemical substance (yeast gene YMR189W): 0.7 | level of expressed mRNA in the presence/in the absence of chemical substance (yeast gene YMR205C): 0.5 | level of expressed mRNA in the presence/in the absence of chemical substance (yeast gene YMR261C): 0.7 | The level of expressed mRNA in the presence of chemical substance/The level of expressed mRNA in the absence of chemical substance (yeast gene YMR271C): 1.6 | The level of expressed mRNA in the presence of chemical substance/The level of expressed mRNA in the absence of chemical substance (yeast gene YMR296C): 0.6 | level of expressed mRNA in the presence/in the absence of chemical substance (yeast gene YMR323W): 0.8 | The level of expressed mRNA in the presence of chemical substance/The level of expressed mRNA in the absence of chemical substance (yeast gene YNL012W): 1.3 | level of expressed mRNA in the presence/in the absence of chemical substance (yeast gene YNL025C): 0.9 | The level of expressed mRNA in the presence of chemical substance/The level of expressed mRNA in the absence of chemical substance (yeast gene YNL045W): 0.8 | The level of expressed mRNA in the presence of chemical substance/The level of expressed mRNA in the absence of chemical substance (yeast gene YNL104C): 1.1 | The level of expressed mRNA in the presence of chemical substance/The level of expressed mRNA in the absence of chemical substance (yeast gene YNL106C): 1.0 | The level of expressed mRNA in the presence of chemical substance/The level of expressed mRNA in the absence of chemical substance (yeast gene YNL169C): 0.7 | level of expressed mRNA in the presence/in the absence of chemical substance (yeast gene YNL192W): 1.1 | The level of expressed mRNA in the presence of chemical substance/The level of expressed mRNA in the absence of chemical substance (yeast gene YNL231C): 1.5 | The level of expressed mRNA in the presence of chemical substance/The level of expressed mRNA in the absence of chemical substance (yeast gene YNL322C): 0.8 | The level of expressed mRNA in the presence of chemical substance/The level of expressed mRNA in the absence of chemical substance (yeast gene YNL331C): 8.6 | The level of expressed mRNA in the presence of chemical substance/The level of expressed mRNA in the absence of chemical substance (yeast gene YNL332W): 1.1 | The level of expressed mRNA in the presence of chemical substance/The level of expressed mRNA in the absence of chemical substance (yeast gene YNR019W): 1.0 | The level of expressed mRNA in the presence of chemical substance/The level of expressed mRNA in the absence of chemical substance (yeast gene YNR033W): 0.6 | The level of expressed mRNA in the presence of chemical substance/The level of expressed mRNA in the absence of chemical substance (yeast gene YNR059W): 1.1 | The level of expressed mRNA in the presence of chemical substance/The level of expressed mRNA in the absence of chemical substance (yeast gene YOL058W): 0.8 | level of expressed mRNA in the presence/in the absence of chemical substance (yeast gene YOL086C): 1.1 | level of expressed mRNA in the presence/in the absence of chemical substance (yeast gene YOL108C): 1.4 | level of expressed mRNA in the presence/in the absence of chemical substance (yeast gene YOL116W): 1.1 | The level of expressed mRNA in the presence of chemical substance/The level of expressed mRNA in the absence of chemical substance (yeast gene YOL126C): 1.0 | The level of expressed mRNA in the presence of chemical substance/The level of expressed mRNA in the absence of chemical substance (yeast gene YOL153C): 1.0 | level of expressed mRNA in the presence/in the absence of chemical substance (yeast gene YOL156W): 1.1 | The level of expressed mRNA in the presence of chemical substance/The level of expressed mRNA in the absence of chemical substance (yeast gene YOL165C): 10.1 | level of expressed mRNA in the presence/in the absence of chemical substance (yeast gene YOR002W): 0.8 | level of expressed mRNA in the presence/in the absence of chemical substance (yeast gene YOR085W): 0.7 | The level of expressed mRNA in the presence of chemical substance/The level of expressed mRNA in the absence of chemical substance (yeast gene YOR099W): 0.8 | level of expressed mRNA in the presence/in the absence of chemical substance (yeast gene YOR103C): 1.1 | level of expressed mRNA in the presence/in the absence of chemical substance (yeast gene YOR108W): 0.8 | level of expressed mRNA in the presence/in the absence of chemical substance (yeast gene YOR128C): 0.9 | The level of expressed mRNA in the presence of chemical substance/The level of expressed mRNA in the absence of chemical substance (yeast gene YOR130C): 0.8 | level of expressed mRNA in the presence/in the absence of chemical substance (yeast gene YOR142W): 1.0 | level of expressed mRNA in the presence/in the absence of chemical substance (yeast gene YOR176W): 0.7 | level of expressed mRNA in the presence/in the absence of chemical substance (yeast gene YOR178C): 1.4 | level of expressed mRNA in the presence/in the absence of chemical substance (yeast gene YOR251C): 1.1 | The level of expressed mRNA in the presence of chemical substance/The level of expressed mRNA in the absence of chemical substance (yeast gene YOR336W): 0.7 | The level of expressed mRNA in the presence of chemical substance/The level of expressed mRNA in the absence of chemical substance (yeast gene YOR347C): 0.9 | level of expressed mRNA in the presence/in the absence of chemical substance (yeast gene YOR348C): 1.1 | The level of expressed mRNA in the presence of chemical substance/The level of expressed mRNA in the absence of chemical substance (yeast gene YPL017C): 1.0 | level of expressed mRNA in the presence/in the absence of chemical substance (yeast gene YPL028W): 0.7 | level of expressed mRNA in the presence/in the absence of chemical substance (yeast gene YPL057C): 1.9 | level of expressed mRNA in the presence/in the absence of chemical substance (yeast gene YPL135W): 0.9 | level of expressed mRNA in the presence/in the absence of chemical substance (yeast gene YPL148C): 1.2 | The level of expressed mRNA in the presence of chemical substance/The level of expressed mRNA in the absence of chemical substance (yeast gene YPR026W): 0.9 | level of expressed mRNA in the presence/in the absence of chemical substance (yeast gene YPR113W): 1.1 | level of expressed mRNA in the presence/in the absence of chemical substance (yeast gene YPR165W): 1.3 | The level of expressed mRNA in the presence of chemical substance/The level of expressed mRNA in the absence of chemical substance (yeast gene YPR167C): 5.3 | level of expressed mRNA in the presence/in the absence of chemical substance (yeast gene YPR183W): 0.9
